Here are results for ten molecules from US20150315188A1, “COMPOUNDS AND METHODS FOR TREATMENT OF HYPERTENSION” (MEDIVATION TECHNOLOGIES, INC., priority 2012, published 2015).

Holding throughout (assay type): cell-based
In assay [1] the target is T1, Human adrenergic α1B receptor (Homo sapiens, UniProt P35368).
T1 sequence (P35368 1-520): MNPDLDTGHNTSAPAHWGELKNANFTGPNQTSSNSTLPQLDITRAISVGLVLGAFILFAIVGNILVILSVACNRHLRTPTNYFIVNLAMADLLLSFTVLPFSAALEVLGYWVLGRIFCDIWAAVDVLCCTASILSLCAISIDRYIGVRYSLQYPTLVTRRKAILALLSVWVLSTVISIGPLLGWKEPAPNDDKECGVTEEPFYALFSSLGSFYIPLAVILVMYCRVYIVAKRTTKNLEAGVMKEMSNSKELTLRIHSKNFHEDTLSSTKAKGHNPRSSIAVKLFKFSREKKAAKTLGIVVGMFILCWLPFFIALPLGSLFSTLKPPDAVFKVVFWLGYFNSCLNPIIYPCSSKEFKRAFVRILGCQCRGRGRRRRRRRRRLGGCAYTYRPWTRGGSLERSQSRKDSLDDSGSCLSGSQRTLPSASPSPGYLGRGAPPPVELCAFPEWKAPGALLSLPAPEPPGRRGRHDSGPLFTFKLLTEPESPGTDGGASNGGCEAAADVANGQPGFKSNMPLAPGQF
Briefly: β-Arrestin GPCR functional assay, adrenergic α1B (Protocol B). Particulars: for pIC50: β-arrestin, antagonist vs nor-epinephrine EC80; for inhibition at 0.1 µM / inhibition at 0.3 µM / Percentage inhibition, Adrenergic α1B: nor-epinephrine at EC80 (50 nM); for inhibition at 0.1 µM / inhibition at 0.3 µM: read-out: Percentage inhibition, Adrenergic α1B. Here is the method: (§1) To evaluate the activity of compounds in β-Arrestin GPCR functional assays, recombinant CHO cell line (DiscoveRX), over expressed with human adrenergic α1B receptor were used. The experiment was done with a kit of DiscoveRX as per recommended protocol of the supplier. Cells were harvested from culture flask using cell dissociation solution (CDS) and plated at a density of 12,000 cells/well in CP reagent (supplied with the kit) in a half area 96-well white polystyrene plate. After 24 h incubation at 37° C., compounds at various concentrations in 1% (final) DMSO were charged to the cells for 30 min at 37° C. Active nor-epinephrine (-NE) at its EC80 concentrations (50 nM) were then added to the cells and incubated for another 90 min at 37° C. Detection mix was prepared by mixing Path Hunter cell assay buffer, Emerald II solution and Galactone star solution in a ratio of 19:5:1 and incubated with the cells for 60 min at RT in the dark. The reading was taken in Envision at luminescence mode. Biochemical assay results are presented as the percent Inhibition in Table B2a, or IC50 values in Table B2b.

The target of assay [2] is T2, Human adrenergic α2B receptor (Homo sapiens, UniProt P18089).
T2 sequence (P18089 1-450): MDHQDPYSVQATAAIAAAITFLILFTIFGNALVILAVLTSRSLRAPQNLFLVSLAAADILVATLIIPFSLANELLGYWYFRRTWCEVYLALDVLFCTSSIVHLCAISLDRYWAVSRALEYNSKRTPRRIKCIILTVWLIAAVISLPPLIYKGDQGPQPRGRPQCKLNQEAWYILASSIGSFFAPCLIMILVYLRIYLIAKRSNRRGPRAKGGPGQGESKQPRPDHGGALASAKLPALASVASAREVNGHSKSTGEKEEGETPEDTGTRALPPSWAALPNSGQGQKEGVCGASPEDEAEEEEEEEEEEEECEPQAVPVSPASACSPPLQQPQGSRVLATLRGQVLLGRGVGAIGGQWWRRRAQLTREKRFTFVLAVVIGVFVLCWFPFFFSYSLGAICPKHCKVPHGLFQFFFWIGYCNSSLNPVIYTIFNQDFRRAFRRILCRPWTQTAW
Briefly: β-Arrestin GPCR functional assay, adrenergic α2B (Protocol B). Particulars: for pIC50: β-arrestin, antagonist vs nor-epinephrine EC80, read-out: IC50 Adrenergic α2B; for Percentage inhibition, Adrenergic α2B / inhibition at 0.03 µM / inhibition at 0.1 µM / inhibition at 0.01 µM: nor-epinephrine at EC80 (50 nM); for inhibition at 0.03 µM / inhibition at 0.1 µM / inhibition at 0.01 µM: read-out: Percentage inhibition, Adrenergic α2B. The essentials:
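CHO cells overexpressing human α2B (PathHunter β-arrestin), 12,000 per well, 24 h at 37° C; compounds in 1% DMSO 30 min, then 50 nM norepinephrine (EC80) 90 min at 37° C.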

Assay [3] deals with T3, Human adrenergic α2A receptor (Homo sapiens, UniProt P08913).
T3 sequence (P08913 1-465): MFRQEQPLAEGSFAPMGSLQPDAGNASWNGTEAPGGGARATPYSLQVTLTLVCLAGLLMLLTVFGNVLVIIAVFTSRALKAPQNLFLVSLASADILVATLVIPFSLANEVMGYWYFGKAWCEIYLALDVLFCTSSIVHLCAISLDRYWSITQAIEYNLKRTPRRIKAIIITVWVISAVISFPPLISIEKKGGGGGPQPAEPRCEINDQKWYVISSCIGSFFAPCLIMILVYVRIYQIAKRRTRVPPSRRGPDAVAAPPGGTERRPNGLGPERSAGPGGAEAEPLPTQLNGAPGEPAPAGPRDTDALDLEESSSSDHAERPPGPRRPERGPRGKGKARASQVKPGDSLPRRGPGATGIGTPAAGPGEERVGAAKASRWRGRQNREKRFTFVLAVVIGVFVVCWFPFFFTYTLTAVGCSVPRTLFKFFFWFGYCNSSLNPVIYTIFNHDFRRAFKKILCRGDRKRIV
As to the kind of experiment: β-Arrestin GPCR functional assay, adrenergic α2A (Protocol B). Particulars: for pIC50: β-arrestin, antagonist vs nor-epinephrine EC80; for inhibition at 0.1 µM / inhibition at 0.3 µM / Percentage inhibition, Adrenergic α2A: nor-epinephrine at EC80 (270 nM); for inhibition at 0.1 µM / inhibition at 0.3 µM: read-out: Percentage inhibition, Adrenergic α2A. Here is the method: as §1, with “α2A” for “α1B”, “with” for “with a”, “(270” for “(50”, “mixing of” for “mixing”

pIC50: −log10 of the molar value.

Broadly, the pIC50 is the IC50 on a negative log10 scale, so that one unit is a factor of ten. As usually defined, the inhibition is the relative decrease from the control value, in per cent.

Consider `Cc1ccc2c(c1)c1c(n2CC(OC(=O)N2CCCC2)c2ccncc2)CCN(C)C1` (single isomer, unassigned) [4b], for which the pIC50 is 6.18 in assay [1], 6.79 in assay [2] and 5.22 in assay [3].

Take `Cc1ccc2c(c1)c1c(n2CC(C)(O)c2ccc(F)nc2)CCN2CCCC12` (single isomer, unassigned) [6a]: the pIC50 in assay [1] is 6.92; in assay [2], 7.62; in assay [3] it was 5.75.

`Cc1ccc2c(c1)c1c(n2CC(C)(O)c2ccncc2)CCN2CCCC12` (single isomer, unassigned) [13a]: the inhibition at 0.1 µM in assay [1] (0.1 μM compound) is 49%; in assay [2] (0.1 μM compound) it was 88%; in assay [3] (0.1 μM compound) it was 14%. Besides, the results for the inhibition at 0.3 µM in assay [1] (0.3 μM compound) and in assay [3] (0.3 μM compound) were 74% and 21%, respectively. For the same molecule, the pIC50 was 7.00 in assay [1], 7.52 in assay [2] and 5.65 in assay [3]. For the same molecule, the “Percentage inhibition, Adrenergic α2B” value in assay [2] (10 nM compound) is given as 9%. In addition, the inhibition at 0.03 µM in assay [2] (30 nM compound) was found to be 29%.

In the case of `Cc1ccc2c(c1)c1c(n2CC(C)(O)c2ccncc2)CCN2CCCC12` (single isomer, unassigned) [13b], the “Percentage inhibition, Adrenergic α1B” value worked out at 32% in assay [1] (0.1 μM compound) and 61% in assay [1] (0.3 μM compound). The results for the pIC50 in assay [1], in assay [2] and in assay [3] were 6.82, 7.92 and 6.09, respectively. Moreover, the figures for the “Percentage inhibition, Adrenergic α2B” value in assay [2] (10 nM compound), in assay [2] (30 nM compound) and in assay [2] (0.1 μM compound) were 4%, 30% and 102%, respectively. Besides, the “Percentage inhibition, Adrenergic α2A” value in assay [3] (0.1 μM compound) was 23%; in assay [3] (0.3 μM compound), 30%.

Take `Cc1ccc2c(c1)c1c(n2CC(O)c2ccncc2F)CCN2CCCC12` (single isomer, unassigned) [14a]: the “Percentage inhibition, Adrenergic α1B” value in assay [1] (0.1 μM compound) is recorded as 49%. Moreover, the inhibition at 0.3 µM in assay [1] (0.3 μM compound) was found to be 76%. Further, the results for the pIC50 in assay [1] and in assay [2] were 7.00 and 6.91, respectively. For the same molecule, in assay [2] (10 nM compound), the inhibition at 0.01 µM stood at 13%. The “Percentage inhibition, Adrenergic α2B” value in assay [2] (30 nM compound) came out at 9%; in assay [2] (0.1 μM compound), 41%. Besides, the “Percentage inhibition, Adrenergic α2A” value in assay [3] (0.1 μM compound) is −1%; in assay [3] (0.3 μM compound), −2%.

On to `Cc1ccc2c(c1)c1c(n2CC(O)c2ccncc2F)CCN2CCCC12` (single isomer, unassigned) [14b], for which the “Percentage inhibition, Adrenergic α1B” value in assay [1] (0.1 μM compound) was found to be 76%; in assay [1] (0.3 μM compound) it was 86%. The pIC50 in assay [1] was 7.60; in assay [2] it was 7.85; in assay [3], 6.37. The “Percentage inhibition, Adrenergic α2B” value is given as 11% in assay [2] (10 nM compound), 93% in assay [2] (30 nM compound) and 97% in assay [2] (0.1 μM compound). Moreover, the results for the “Percentage inhibition, Adrenergic α2A” value in assay [3] (0.1 μM compound) and in assay [3] (0.3 μM compound) were 13% and 44%, respectively.

On to `OC(Cn1c2c(c3cc(F)ccc31)C1CCCN1CC2)c1ccncc1` (single isomer, unassigned) [18b], for which the inhibition at 0.1 µM amounted to 19% in assay [1] (0.1 μM compound), 103% in assay [2] (0.1 μM compound) and 14% in assay [3] (0.1 μM compound). For the same molecule, the results for the inhibition at 0.3 µM in assay [1] (0.3 μM compound) and in assay [3] (0.3 μM compound) were 46% and 18%, respectively. Further, the pIC50 is 6.45 in assay [1], 7.89 in assay [2] and 5.56 in assay [3]. Further, the inhibition at 0.01 µM in assay [2] (10 nM compound) amounted to 37%. Moreover, in assay [2] (30 nM compound), the inhibition at 0.03 µM came to 94%.

On to `Cc1cc(F)c2c(c1)c1c(n2CC(C)(O)c2cccnc2)CCN2CCCC12` (single isomer, unassigned) [79b], for which the pIC50 in assay [2] was 7.47; in assay [3] it was 5.57.

In the case of `Cc1cc(F)cc2c3c(n(CC(O)c4ccncc4)c12)CCN1CCCC31` (single isomer, unassigned) [136a], the pIC50 in assay [2] is 7.97; in assay [3], 6.05.

Consider `Cc1cc(F)c2c(c1)c1c(n2CC(C)(O)c2cccnc2)CCN2CCCC12` (stereo not shown) [Compound No. 79a], for which the results for the pIC50 in assay [2] and in assay [3] were 7.92 and 6.17, respectively.
